Results published in patent US11078170B2 (Assembly Biosciences, Inc., priority 2017, dated 2021).

system: HBV viral production from HepAD38 cells; test: Activity of test compounds on viral production from HepAD38 cells (viral load by qPCR of HBV core sequence in supernatant); assay type: cell-based; settings: Hepatitis B virus, 120 h, 5 days incubation, HBV DNA in supernatant by qPCR, top concentration 10 μM, read-out: Viral Load EC50 Activity range
In short: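 EC50 and CC50 come from four-parameter fits of supernatant viral load and CellTiter-Glo viability, respectively. Viral load was measured by core-region TaqMan qPCR against HBV DNA standards and compared with DMSO controls. Tet-free HepAD38 cells (50,000/well, 2% FBS) were exposed to compound, highest 10 μM, for 5 days at 37° C.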

Row | Structure (SMILES) | EC50 [µM]
1 | N#CCN1C(C(=O)Nc2ccc(F)c(Cl)c2)CC(c2nccs2)NS1(=O)=O (racemic) [HBV-CSU-093, Cis-N-(3-Chloro-4-fluorophenyl)-2-(cyanomethyl)-5-(thiazol-2-yl)-1,2,6-thiadiazinane-3-carboxamide 1,1-dioxide] | > 5
2 | CN1[C@@H](C(=O)Nc2ccc(F)c(Cl)c2)C[C@@H](c2cc(-c3cncn3C)cs2)NS1(=O)=O (relative stereo) [HBV-CSU-285-ISO-II, Cis-N-(3-Chloro-4-fluorophenyl)-2-methyl-5-(4-(1-methyl-1H-imidazol-5-yl)thiophen-2-yl)-1,2,6-thiadiazinane-3-carboxamide 1,1-dioxide] | < 1
3 | CN1[C@@H](C(=O)Nc2ccc(F)c(Cl)c2)C[C@@H](c2ccc(-c3cn(C)cn3)s2)NS1(=O)=O [HBV-CSU-266-ISO-II, Cis-N-(3-Chloro-4-fluorophenyl)-2-methyl-5-(5-(1-methyl-1H-imidazol-4-yl)thiophen-2-yl)-1,2,6-thiadiazinane-3-carboxamide 1,1-dioxide] | 1 to 5
4 | COCCN1[C@H](C(=O)Nc2ccc(F)c(Cl)c2)C[C@H](c2cccs2)NS1(=O)=O [HBV-CSU-025-ISO-II, Cis-N-(3-chloro-4-fluorophenyl)-2-(2-methoxyethyl)-5-(thiophen-2-yl)-1,2,6-thiadiazinane-3-carboxamide 1,1-dioxide] | < 1
5 | O=C(Nc1ccc(F)c(Cl)c1)[C@@H]1C[C@H](c2nccs2)NS(=O)(=O)N1CCCN1CCCC1 [HBV-CSU-102-ISO-II, Cis-N-(3-Chloro-4-fluorophenyl)-2-(3-(pyrrolidin-1-yl)propyl)-5-(thiazol-2-yl)-1,2,6-thiadiazinane-3-carboxamide 1,1-dioxide] | > 5
6 | CN1[C@H](C(=O)Nc2ccc(F)c(Cl)c2)C[C@H](c2ncc(-c3cccs3)s2)NS1(=O)=O [HBV-CSU-178-ISO-I, Cis-N-(3-Chloro-4-fluorophenyl)-2-methyl-5-(5-(thiophen-2-yl)thiazol-2-yl)-1,2,6-thiadiazinane-3-carboxamide 1,1-dioxide] | < 1
7 | CN1[C@H](C(=O)Nc2ccc(F)c(Cl)c2)C[C@H](C2CCCC2)NS1(=O)=O [HBV-CSU-222-ISO-I, Cis-N-(3-chloro-4-fluorophenyl)-5-cyclopentyl-2-methyl-1,2,6-thiadiazinane-3-carboxamide 1,1-dioxide] | < 1
8 | CN1[C@H](C(=O)Nc2ccc(F)c(Cl)c2)C[C@H](c2cccc(-c3cnn(C)c3)c2)NS1(=O)=O [HBV-CSU-247-ISO-I, Cis-N-(3-chloro-4-fluorophenyl)-2-methyl-5-(3-(1-methyl-1H-pyrazol-4-yl)phenyl)-1,2,6-thiadiazinane-3-carboxamide 1,1-dioxide] | > 5
9 | CN1C(C(=O)Nc2ccc(F)c(Cl)c2)CC(c2ncc(-c3ccc(F)cc3)s2)NS1(=O)=O (racemic) [HBV-CSU-248, Cis-N-(3-Chloro-4-fluorophenyl)-5-(5-(4-fluorophenyl)thiazol-2-yl)-2-methyl-1,2,6-thiadiazinane-3-carboxamide 1,1-dioxide] | < 1
10 | O=C(Nc1ccc(F)c(Cl)c1)C1CC(c2nccs2)NS(=O)(=O)N1CCN1CCOCC1 (racemic) [HBV-CSU-082, Cis-N-(3-Chloro-4-fluorophenyl)-2-(2-morpholinoethyl)-5-(thiazol-2-yl)-1,2,6-thiadiazinane-3-carboxamide 1,1-dioxide] | > 5
11 | Cc1csc(C2CC(C(=O)Nc3ccc(F)c(Cl)c3)N(C)S(=O)(=O)N2)c1 (racemic) [HBV-CSU-147, Cis-N-(3-chloro-4-fluorophenyl)-2-methyl-5-(4-methylthiophen-2-yl)-1,2,6-thiadiazinane-3-carboxamide 1,1-dioxide] | < 1
12 | [2H]C([2H])([2H])N1[C@@H](C(=O)Nc2ccc(F)c(Cl)c2)C[C@@H](c2ccc(-c3cn(C([2H])([2H])[2H])cn3)s2)NS1(=O)=O (stereo in doubt) [HBV-CSU-374-ISO-II, Cis-N-(3-Chloro-4-fluorophenyl)-2-(methyl-d3)-5-(5-(1-(methyl-d3)-1H-imidazol-4-yl)thiophen-2-yl)-1,2,6-thiadiazinane-3-carboxamide 1,1-dioxide] | < 1
13 | CN1C(C(=O)Nc2ccc(F)c(Cl)c2)CC(c2ncc(-c3cnn(C)c3)s2)NS1(=O)=O (racemic) [HBV-CSU-177, Cis-N-(3-Chloro-4-fluorophenyl)-2-methyl-5-(5-(1-methyl-1H-pyrazol-4-yl)thiazol-2-yl)-1,2,6-thiadiazinane-3-carboxamide 1,1-dioxide] | < 1
14 | CN1C(C(=O)Nc2ccc(F)c(Cl)c2)CC(c2ccc(OCC(=O)O)cc2)NS1(=O)=O (racemic) [HBV-CSU-216, Cis-2-(4-(5-((3-Chloro-4-fluorophenyl)carbamoyl)-6-methyl-1,1-dioxido-1,2,6-thiadiazinan-3-yl)phenoxy)acetic acid] | > 5
15 | CN1[C@H](C(=O)Nc2ccc(F)c(Cl)c2)C[C@H](c2cc(Cl)c(-c3cnn(C)c3)s2)NS1(=O)=O [HBV-CSU-302-ISO-I, Cis-N-(3-Chloro-4-fluorophenyl)-5-(4-chloro-5-(1-methyl-1H-pyrazol-4-yl)thiophen-2-yl)-2-methyl-1,2,6-thiadiazinane-3-carboxamide 1,1-dioxide] | < 1
16 | CN1[C@@H](C(=O)Nc2ccc(F)c(Cl)c2)C[C@@H](c2ccc(-c3ccc(C(F)(F)F)nc3)s2)NS1(=O)=O [HBV-CSU-158-ISO-II, Cis-N-(3-chloro-4-fluorophenyl)-2-methyl-5-(5-(6-(trifluoromethyl)pyridin-3-yl)thiophen-2-yl)-1,2,6-thiadiazinane-3-carboxamide 1,1-dioxide] | > 5
17 | CN1[C@@H](C(=O)Nc2ccc(F)c(Cl)c2)C[C@@H](c2ccc(-c3cn[nH]c3)s2)NS1(=O)=O [HBV-CSU-244-ISO-II] | < 1
18 | CN1C(C(=O)Nc2ccc(F)c(Cl)c2)CC(c2cc(-c3cncs3)cs2)NS1(=O)=O (racemic) [HBV-CSU-286, Cis-N-(3-Chloro-4-fluorophenyl)-2-methyl-5-(4-(thiazol-5-yl)thiophen-2-yl)-1,2,6-thiadiazinane-3-carboxamide 1,1-dioxide] | < 1
19 | COCCN1[C@H](c2cccs2)C[C@H](C(=O)Nc2ccc(F)c(Cl)c2)NS1(=O)=O [HBV-CSU-044-ISO-I, Cis-N-(3-Chloro-4-fluorophenyl)-6-(2-methoxyethyl)-5-(thiophen-2-yl)-1,2,6-thiadiazinane-3-carboxamide 1,1-dioxide] | > 5
20 | CN1[C@H](C(=O)Nc2ccc(F)c(Cl)c2)C[C@H](c2ncc(-c3cncs3)s2)NS1(=O)=O (relative stereo) [HBV-CSU-278-ISO-I, Cis-5-([5,5′-Bithiazol]-2-yl)-N-(3-chloro-4-fluorophenyl)-2-methyl-1,2,6-thiadiazinane-3-carboxamide 1,1-dioxide] | < 1
21 | N#CCN1[C@H](C(=O)Nc2ccc(F)c(Cl)c2)C[C@H](c2nccs2)NS1(=O)=O [HBV-CSU-093-ISO-I, Cis-N-(3-Chloro-4-fluorophenyl)-2-(cyanomethyl)-5-(thiazol-2-yl)-1,2,6-thiadiazinane-3-carboxamide 1,1-dioxide] | 1 to 5
22 | COCCN1C(C(=O)Nc2ccc(F)c(Br)c2)CC(c2nccs2)NS1(=O)=O (racemic) [HBV-CSU-059, Cis-N-(3-bromo-4-fluorophenyl)-2-(2-methoxyethyl)-5-(thiazol-2-yl)-1,2,6-thiadiazinane-3-carboxamide 1,1-dioxide] | < 1
23 | CN1[C@H](C(=O)Nc2ccc(F)c(Cl)c2)C[C@H](c2cc(-c3ccc(F)cn3)cs2)NS1(=O)=O (stereo in doubt) [HBV-CSU-243-ISO-II, Cis-N-(3-chloro-4-fluorophenyl)-5-(4-(5-fluoropyridin-2-yl)thiophen-2-yl)-2-methyl-1,2,6-thiadiazinane-3-carboxamide 1,1-dioxide] | < 1
24 | CN1[C@H](C(=O)Nc2ccc(F)c(Cl)c2)C[C@H](c2ccc(-c3ccnn3C)s2)NS1(=O)=O [HBV-CSU-271-ISO-I, Cis-N-(3-chloro-4-fluorophenyl)-2-methyl-5-(5-(1-methyl-1H-pyrazol-5-yl)thiophen-2-yl)-1,2,6-thiadiazinane-3-carboxamide 1,1-dioxide] | < 1
25 | CC(C)n1cc(-c2ccc([C@H]3C[C@@H](C(=O)Nc4ccc(F)c(Cl)c4)N(C)S(=O)(=O)N3)s2)cn1 [HBV-CSU-292-ISO-I, Cis-N-(3-chloro-4-fluorophenyl)-5-(5-(1-isopropyl-1H-pyrazol-4-yl)thiophen-2-yl)-2-methyl-1,2,6-thiadiazinane-3-carboxamide 1,1-dioxide] | < 1
26 | CN1[C@H](C(=O)Nc2ccc(F)c(Cl)c2)C[C@H](c2ccc(-c3ccccn3)s2)NS1(=O)=O [HBV-CSU-160-ISO-I, Cis-N-(3-chloro-4-fluorophenyl)-2-methyl-5-(5-(pyridin-2-yl)thiophen-2-yl)-1,2,6-thiadiazinane-3-carboxamide 1,1-dioxide] | < 1
27 | CN1C(C(=O)Nc2ccc(F)c(Cl)c2)CC(c2cc(-c3ccccn3)cs2)NS1(=O)=O (racemic) [HBV-CSU-168, Cis-N-(3-chloro-4-fluorophenyl)-2-methyl-5-(4-(pyridin-2-yl)thiophen-2-yl)-1,2,6-thiadiazinane-3-carboxamide 1,1-dioxide] | < 1
28 | CN1[C@H](C(=O)Nc2cc(Cl)cc(Cl)c2)C[C@H](c2cccs2)NS1(=O)=O [HBV-CSU-047-ISO-I, Cis-N-(3,5-Dichlorophenyl)-2-methyl-5-(thiophen-2-yl)-1,2,6-thiadiazinane-3-carboxamide 1,1-dioxide] | < 1
29 | CN1[C@@H](C(=O)Nc2ccc(F)c(Cl)c2)C[C@@H](c2ccc(F)cn2)NS1(=O)=O [HBV-CSU-032-ISO-II, Cis-N-(3-Chloro-4-fluorophenyl)-5-(5-fluoropyridin-2-yl)-2-methyl-1,2,6-thiadiazinane-3-carboxamide 1,1-dioxide] | > 5
